Assay results from patent publication US20070249590A1, “Substituted indolo[2,3-a]pyrrolo[3,4-c]carbazole compounds useful in treating kinase disorders” (priority 2005, published 2007).

What follows are compounds tested against T1, JAK3 (JH1 and JH2 domain) (Homo sapiens, UniProt P52333) (assay: JAK3 Kinase Assay (ELISA of peptide substrate phosphorylation)). Conditions: purified JAK3 enzyme, 10 μM ATP, biotinylated peptide substrate, 1 hour at room temperature.
T1 sequence (P52333 521-1111 limits assumed): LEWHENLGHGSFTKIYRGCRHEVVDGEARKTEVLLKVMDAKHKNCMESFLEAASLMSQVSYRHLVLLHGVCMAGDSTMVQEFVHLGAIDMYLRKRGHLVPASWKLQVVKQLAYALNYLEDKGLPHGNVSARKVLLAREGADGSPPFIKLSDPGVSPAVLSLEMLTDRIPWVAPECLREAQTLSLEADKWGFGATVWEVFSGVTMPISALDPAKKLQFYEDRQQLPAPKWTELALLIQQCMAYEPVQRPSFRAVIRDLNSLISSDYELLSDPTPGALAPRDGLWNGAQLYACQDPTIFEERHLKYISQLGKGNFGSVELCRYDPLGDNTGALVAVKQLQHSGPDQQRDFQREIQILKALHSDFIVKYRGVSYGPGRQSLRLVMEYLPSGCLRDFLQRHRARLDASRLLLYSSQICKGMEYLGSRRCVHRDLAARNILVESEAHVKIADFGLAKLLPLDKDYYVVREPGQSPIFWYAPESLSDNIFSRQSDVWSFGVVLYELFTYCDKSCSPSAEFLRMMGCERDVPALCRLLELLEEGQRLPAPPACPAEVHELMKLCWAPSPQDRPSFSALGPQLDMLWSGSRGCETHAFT
Format: biochemical
Experimental: JAK3 enzyme activity was assayed relative to enzyme phosphorylation using the method described herein.
Sf21 cells derived from the ovarian tissue of the fall armyworm Spodotera frugiperda were obtained from Pharmingen (San Diego, Calif.) and maintained at a temperature of about 26-28° C. in 1 l Bellco spinner flasks at 60-90 rpm. Cell viability was maintained at 95-100%, as determined by a tryptan blue dye exclusion test.
Sf21 cells were infected with a baculovirus expression vector for JAK3 (JH1 and JH2 domain). After 48 hours of infection, cells were harvested and lysed in Tris-saline (pH 7.6) containing 2% NP-40 and a combination of protease inhibitors (Aprotinin, Pepstatin A, Pefabloc, E-64, Leupeptin, and Benzamidine) on ice for 45 minutes.
The JAK3 enzyme was purified from the lysate using glutathione sepharose beads and the enzyme activity was assessed in Costar flat bottom EIA/RIA 96 well plates. The plates were coated with Neutravidin (110 μL) (Pierce Neutravidin Biotin-binding Protein 31000; 1 mg/mL 1:100) diluted in PBS for 1 hour at room temperature. The plates were washed with PBS-0.1% Tween (3 times) to remove unbound Neutravidin, then 1% BSA (150 NIL) in PBS was added to each well to block non-specific binding. The plates was incubated for 1 hour at room temperature and stored at −80° C. until use.
JAK3 enzyme solution (48 μL) in 1.25×TK buffer (62.5 mM HEPES pH 7.5, 12.5 mM MgCl2) containing DTT (42 mM) (Sigma, St. Louis, Mo.) was added to each well of a polypropylene 96 well plate.
A test compound (5 μL) diluted in DMSO (48 μL) and biotinylated peptide enzyme substrate (5 μg diluted in TK buffer containing 10 μM ATP) were added to each well using the double dispense feature of a multichannel electronic biohit. Control wells received DMSO vehicle (5 μL). The contents of the wells were mixed for approximately 8 seconds using a multitube vortexer and the reaction mixture was incubated for 1 hour at room temperature.
After incubation, an aliquot of reaction mixture (90 μL) was transferred into a washed Neutravidin coated plate. The plate was incubated for 15 minutes at room temperature and washed 3 times with PBS-T. PY99 anti-phosphotyrosine antibody (100 μL/well) (Santa Cruz #sc-7020HRP diluted 1:6000 in 1× antibody buffer) was added into each well and the plate was incubated for 40 minutes at room temperature. The antibody buffer contained 10% BSA, 100 mM Tris (pH 7.5), 1M NaCl and 1% Tween 20. The plate washed 3 times with PBS-T, then TMB (100 pLXSigma, St. Louis, Mo.) was added to the each well. The plate was incubated for another 40 mins at room temperature in the dark. The reaction was stopped by the addition of 1M H2SO4 (50 μL/well) and the optical density was read at 450/650 nm.
Test compounds were assayed in triplicate at 16 concentrations at half-log dilutions starting at 200 μM. A maximum and minimum signal for the assay was determined on each plate. The percent inhibition of a test compound was calculated according to the formula [formula]
For a series of test concentrations, the IC50 was derived by graphing percent inhibition against the log of the concentrations tested for a given compound. For those compounds without an IC50, the percent inhibition results are shown at a test concentration of 1 μM.
In the case of `CC1(C)O[C@@H]2Cn3c4ccccc4c4c5c(c6c7ccccc7n(c6c43)C[C@H]2O1)C(=O)NC5` [Cpd 17, 12,13-[(4R,5R)-2,2-dimethyl-[1,3]dioxolo[4,5-b]butan-1,4-yl]-6,7,12,13-tetrahydro-5-oxo-5H-indolo[2,3-a]pyrrolo[3,4-c]carbazole], the IC50 is reported as 45 nM. With `O=C1NCc2c1c1c3ccccc3n3c1c1c2c2ccccc2n1C[C@H](O)[C@@H](O)C3` [Cpd 18, 12,13-[(2S,3S)-dihydroxy-butan-1,4-yl]-6,7,12,13-tetrahydro-5-oxo-5H-indolo[2,3-a]pyrrolo[3,4-c]carbazole] the IC50 was 32 nM. Compound `O=C1NCc2c1c1c3ccccc3n3c1c1c2c2ccccc2n1C[C@@H](O)[C@H](O)C3` [Cpd 19, 12,13-[(2R,3R)-dihydroxy-butan-1,4-yl]-6,7,12,13-tetrahydro-5-oxo-5H-indolo[2,3-a]pyrrolo[3,4-c]carbazole] has an IC50 of 53 nM. `CC1(O)Cn2c3ccccc3c3c4c(c5c6ccccc6n(c5c32)CC1(C)O)C(=O)NC4` (stereo not shown) [Cpd 20, 12,13-(2,3-dimethyl-2,3-dihydroxy-butan-1,4-yl)-6,7,12,13-tetrahydro-5-oxo-5H-indolo[2,3-a]pyrrolo[3,4-c]carbazole] was tested, and the IC50 was 12 nM. Compound `O=C1NCc2c1c1c3ccccc3n3c1c1c2c2ccccc2n1CCC(O)C(O)CC3` (stereo not shown) [Cpd 21, 12,13-(3,4-dihydroxy-hexan-1,6-yl)-6,7,12,13-tetrahydro-5-oxo-5H-indolol[2,3-a]pyrrolo[3,4-c]carbazole] has an IC50 of 12 nM. Work on `C=C1Cn2c3ccccc3c3c4c(c5c6ccccc6n(c5c32)C1)C(=O)NC4` [Cpd 22, 12,13-(2-methylene-propan-1,3-yl)-6,7,12,13-tetrahydro-5-oxo-5H-indolo[2,3-a]pyrrolo[3,4-c]carbazole] yielded an IC50 of 72 nM. For `O=C1NCc2c1c1c3ccccc3n3c1c1c2c2ccccc2n1CC(CO)C3` (stereo not shown) [Cpd 23, 12,13-(2-hydroxymethyl-propan-1,3-yl)-6,7,12,13-tetrahydro-5-oxo-5H-indolo[2,3-a]pyrrolo[3,4-c]carbazole], the IC50 was 22 nM. In the case of `O=C1NCc2c1c1c3ccccc3n3c1c1c2c2ccccc2n1CC(=C(CO)CO)C3` [Cpd 24, 12,13-(2-{[1,1-bis-(dihydroxymethyl)]methylidene}-propan-1,3-yl)-6,7,12,13-tetrahydro-5-oxo-5H-indolo[2,3-a]pyrrolo[3,4-c]carbazole], the IC50 is reported as 37 nM. With `O=C1NCc2c1c1c3ccccc3n3c1c1c2c2ccccc2n1CC(O)(CO)C3` (stereo not shown) [Cpd 25, 12,13-(2-hydroxy-2-hydroxymethyl-propan-1,3-yl)-6,7,12,13-tetrahydro-5-oxo-5H-indolo[2,3-a]pyrrolo[3,4-c]carbazole] the IC50 was 29 nM. Work on `CC1(C)OCC2(CO1)Cn1c3ccccc3c3c4c(c5c6ccccc6n(c5c31)C2)C(=O)NC4` [Cpd 26] yielded an IC50 of 95 nM. Compound `O=C1NCc2c1c1c3ccccc3n3c1c1c2c2ccccc2n1CC(CO)(CO)C3` [Cpd 27, 12,13-(2,2-bis-hydroxymethyl-propan-1,3-yl)-6,7,12,13-tetrahydro-5-oxo-5H-indolo[2,3-a]pyrrolo[3,4-c]carbazole] has an IC50 of 15 nM. With `O=C1NCc2c1c1c3ccccc3n3c1c1c2c2ccccc2n1CCC(O)CC3` (stereo not shown) [Cpd 28, 12,13-(3-hydroxy-pentan-1,5-yl)-6,7,12,13-tetrahydro-5-oxo-5H-indolo[2,3-a]pyrrolo[3,4-c]carbazole] the IC50 was 58 nM. For `O=C1NCc2c1c1c3ccccc3n3c1c1c2c2ccccc2n1CCOCC3` [Cpd 29, 12,13-(3-oxa-pentan-1,5-yl)-6,7,12,13-tetrahydro-5-oxo-5H-indolo[2,3-a]pyrrolo[3,4-c]carbazole], the IC50 was 14 nM. `O=C1NCc2c1c1c3ccccc3n3c1c1c2c2ccccc2n1Cc1c[nH]cc1C3` [Cpd 30, 12,13-(1H-pyrrol[3,4-b]butan-1,4-yl)-6,7,12,13-tetrahydro-5-oxo-5H-indolo[2,3-a]pyrrolo[3,4-c]carbazole] showed an IC50 of 68 nM. Work on `O=C1NC(=O)c2c1c1c3cc(Br)ccc3n3c1c1c2c2ccccc2n1CC(O)CC3` (stereo not shown) [Cpd 31, 3-bromo-12,13-(2-hydroxy-butan-1,4-yl)-12,13-dihydro-5,7-dioxo-6H-indolo[2,3-a]pyrrolo[3,4-c]carbazole] yielded an IC50 of 8 nM. Work on `O=C1NC(=O)c2c1c1c3cc(-c4cccnc4)ccc3n3c1c1c2c2ccccc2n1CC(O)CC3` (stereo not shown) [Cpd 32, 3-pyridin-3-yl-12,13-(2-hydroxy-butan-1,4-yl)-12,13-dihydro-5,7-dioxo-6H-indolo[2,3-a]pyrrolo[3,4-c]carbazole] yielded an IC50 of 35 nM. Work on `O=C1NC(=O)c2c1c1c3cc(-c4ccncc4)ccc3n3c1c1c2c2ccccc2n1CC(O)CC3` (stereo not shown) [Cpd 33, 3-pyridin-4-yl-12,13-(2-hydroxy-butan-1,4-yl)-12,13-dihydro-5,7-dioxo-6H-indolo[2,3-a]pyrrolo[3,4-c]carbazole] yielded an IC50 of 40 nM. `O=C1NC(=O)c2c1c1c3cc(-c4cncnc4)ccc3n3c1c1c2c2ccccc2n1CC(O)CC3` (stereo not shown) [Cpd 34, 3-pyrimidin-5-yl-12,13-(2-hydroxy-butan-1,4-yl)-12,13-dihydro-5,7-dioxo-6H-indolo[2,3-a]pyrrolo[3,4-c]carbazole] showed an IC50 of 66 nM. `O=C1NC(=O)c2c1c1c3cc(-c4cnccn4)ccc3n3c1c1c2c2ccccc2n1CC(O)CC3` (stereo not shown) [Cpd 35, 3-pyrazin-2-yl-12,13-(2-hydroxy-butan-1,4-yl)-12,13-dihydro-5,7-dioxo-6H-indolo[2,3-a]pyrrolo[3,4-c]carbazole] gave an IC50 of 13 nM. `O=C(NCCCn1ccnc1)OC1CCn2c3ccccc3c3c4c(c5c6ccccc6n(c5c32)C1)C(=O)NC4=O` (stereo not shown) [Cpd 36, 12,13-{2-[(3-imidazol-1-yl-prop-1-yl)carbamoyloxy]-butan-1,4-yl}-12,13-dihydro-5,7-dioxo-6H-indolo[2,3-a]pyrrolo[3,4-c]carbazole] was tested, and the IC50 was 30 nM. Compound `CC(C)(C)OC(=O)CNC(=O)OC1CCn2c3ccccc3c3c4c(c5c6ccccc6n(c5c32)C1)C(=O)NC4=O` (stereo not shown) [Cpd 37, 12,13-{2-[(t-butoxycarbonylmethyl)carbamoyloxy]-butan-1,4-yl}-12,13-dihydro-5,7-dioxo-6H-indolo[2,3-a]pyrrolo[3,4-c]carbazole] has an IC50 of 4 nM. With `CCCNC(=O)OC1CCn2c3ccccc3c3c4c(c5c6ccccc6n(c5c32)C1)C(=O)NC4=O` (stereo not shown) [Cpd 38, 12,13-[2-(prop-1-ylcarbamoyloxy)-butan-1,4-yl]-12,13-dihydro-5,7-dioxo-6H-indolo[2,3-a]pyrrolo[3,4-c]carbazole] the IC50 was > 400 nM. In the case of `CC(C)NC(=O)OC1CCn2c3ccccc3c3c4c(c5c6ccccc6n(c5c32)C1)C(=O)NC4=O` (stereo not shown) [Cpd 39, 12,13-[2-(prop-2-ylcarbamoyloxy)-butan-1,4-yl]-12,13-dihydro-5,7-dioxo-6H-indolo[2,3-a]pyrrolo[3,4-c]carbazole], the IC50 is reported as 31 nM. For `CC(C)(C)NC(=O)OC1CCn2c3ccccc3c3c4c(c5c6ccccc6n(c5c32)C1)C(=O)NC4=O` (stereo not shown) [Cpd 40, 12,13-[2-(t-butylcarbamoyloxy)-butan-1,4-yl]-12,13-dihydro-5,7-dioxo-6H-indolo[2,3-a]pyrrolo[3,4-c]carbazole], the IC50 was > 400 nM. For `COCCNC(=O)OC1CCn2c3ccccc3c3c4c(c5c6ccccc6n(c5c32)C1)C(=O)NC4=O` (stereo not shown) [Cpd 41, 12,13-{2-[(2-methoxy-ethyl)carbamoyloxy]-butan-1,4-yl}-12,13-dihydro-5,7-dioxo-6H-indolo[2,3-a]pyrrolo[3,4-c]carbazole], the IC50 was 8 nM.
